What all share (type): in vivo
The subject of assay [1] is speedwell (bird's-eye speedwell, Veronica persica). Put plainly: Test D preemergence. As to conditions: scale 0 to 100. In short, it runs like this:
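Test chemicals, formulated in a non-phytotoxic solvent blend including surfactant, are applied preemergence to seeded silt loam soil. Response is judged visually against controls after approximately 21 d in a controlled environment, on a scale where 0 is no effect and 100 is complete control.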

Assay [2] concerns poinsettia, wild (wild poinsettia, Euphorbia heterophylla). Put plainly: Test E preemergence. The note with it: scale 0 to 100. In a few lines:
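Seeds planted in silt loam were treated preemergence, and plants in Redi-Earth peat medium at 2 to 18 cm (1- to 4-leaf) were treated postemergence, with test chemicals in non-phytotoxic solvent with surfactant. Plants kept in greenhouse 14 to 21 d, then visually rated against controls on a 0–100 scale (0 no effect, 100 complete control).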

Another assay relates to corn (Zea mays). The experiment in a line: Test G Pre-Emergence Protocol. The note with it: Zea mays, pre-emergence, 312 h, evaluated after 13 days; for plant injury at 15.625 g/ha: 15.625 g ai/ha; for plant injury at 15.625 g/ha / plant injury at 250 g/ha: read-out: Corn damage rating (100=total damage to plant; 0=no damage to plant); for plant injury at 62.5 g/ha: 62.5 g ai/ha, 100=total damage to plant, 0=no damage to plant, read-out: plant damage rating, Corn; for plant injury at 250 g/ha: 250 g ai/ha. The method, then:
(§1) Seeds of corn (Zea mays), giant foxtail (Setaria faberi), barnyardgrass (Echinochloa crus-galli), ivy-leaved morning glory (Ipomoea hederacea), redroot pigweed (Amaranthus retroflexus) and velvetleaf (Abutilon theophrasti) were sown in standard soil in pots. After cultivation for one day under controlled conditions in a glasshouse (at 24/16° C., day/night; 14 hours light; 65% humidity), the plants were sprayed with an aqueous spray solution derived from the formulation of the technical active ingredient in acetone/water (50:50) solution containing 0.5% Tween 20 (polyoxyethylene sorbitan monolaurate, CAS RN 9005-64-5) to give a final dose of 15.625, 62.5 or 250 g/ha of test compound.
(§2) The test plants were then grown on under controlled conditions in a glasshouse (at 24/16° C., day/night; 14 hours light; 65% humidity) and watered twice daily. After 13 days the test was evaluated (100=total damage to plant; 0=no damage to plant). A dash (-) means no test result.

The test system of assay [3] is redroot pigweed (Amaranthus retroflexus). The experiment in a line: Test G Pre-Emergence Protocol. As to conditions: Amaranthus retroflexus, pre-emergence, 312 h, evaluated after 13 days; for pest or weed control at 15.625 g/ha: 15.625 g ai/ha; for pest or weed control at 15.625 g/ha / pest or weed control at 250 g/ha: read-out: Pigweed, Redroot damage rating (100=total damage to plant; 0=no damage to plant); for pest or weed control at 62.5 g/ha: 62.5 g ai/ha, 100=total damage to plant, 0=no damage to plant, read-out: plant damage rating, Pigweed, Redroot; for pest or weed control at 250 g/ha: 250 g ai/ha. The protocol: as §1, §2

In assay [4] the test system is velvetleaf (Abutilon theophrasti). Put plainly: Test G Pre-Emergence Protocol. As to conditions: Abutilon theophrasti, pre-emergence, 312 h, evaluated after 13 days; for pest or weed control at 15.625 g/ha: 15.625 g ai/ha; for pest or weed control at 15.625 g/ha / pest or weed control at 250 g/ha: read-out: Velvetleaf damage rating (100=total damage to plant; 0=no damage to plant); for pest or weed control at 62.5 g/ha: 62.5 g ai/ha, 100=total damage to plant, 0=no damage to plant, read-out: plant damage rating, Velvetleaf; for pest or weed control at 250 g/ha: 250 g ai/ha. The protocol: as §1, §2

With `CN1CC(c2cccc(C(F)(F)F)c2)C(C(=O)Nc2ccccc2S(C)(=O)=O)C1=O` (stereo not shown) [Compound 637], the “Plant response rating: Speedwell” value in assay [1] (31 g ai/ha) is 15; in assay [1] (62 g ai/ha), 60; in assay [1] (125 g ai/ha), 100; in assay [1] (250 g ai/ha) it was 100. The “Plant response rating: Poinsettia, Wild” value in assay [2] (31 g ai/ha) is 0; in assay [2] (62 g ai/ha) it was 0; in assay [2] (125 g ai/ha) it was 20; in assay [2] (250 g ai/ha) it was 25.
`CN1CC(c2ccc(C(F)(F)F)cc2)C(C(=O)Nc2ccccc2S(C)(=O)=O)C1=O` (stereo not shown) [Compound 624]: the “Plant response rating: Speedwell” value was 90 in assay [1] (31 g ai/ha), 90 in assay [1] (62 g ai/ha), 100 in assay [1] (125 g ai/ha) and 100 in assay [1] (250 g ai/ha). Further, the “Plant response rating: Poinsettia, Wild” value amounted to 20 in assay [2] (31 g ai/ha), 20 in assay [2] (62 g ai/ha), 30 in assay [2] (125 g ai/ha) and 40 in assay [2] (250 g ai/ha).
As to `Cc1ccc([C@H]2CN(C)C(=O)[C@@H]2C(=O)Nc2cccnc2F)cc1` [Compound 1398], in the assay on corn (Zea mays), the plant injury at 15.625 g/ha amounted to 20%, the plant injury at 62.5 g/ha came out at 80% and the plant injury at 250 g/ha turned out to be 90%. Also, in assay [3], the pest or weed control at 15.625 g/ha is 20%, the pest or weed control at 62.5 g/ha came to 60% and the pest or weed control at 250 g/ha came to 80%. In assay [4], the pest or weed control at 15.625 g/ha stood at 0%, the pest or weed control at 62.5 g/ha stood at 60% and the pest or weed control at 250 g/ha is 80%.
With `Cc1ccc([C@H]2CN(C)C(=O)[C@@H]2C(=O)Nc2ccc(F)nc2F)cc1` [Compound 1402], in the assay on corn (Zea mays), the plant injury at 15.625 g/ha is 60%, the plant injury at 62.5 g/ha stood at 80% and the plant injury at 250 g/ha was found to be 90%. In assay [3], the pest or weed control at 15.625 g/ha was found to be 0%, the pest or weed control at 62.5 g/ha came out at 80% and the pest or weed control at 250 g/ha stood at 80%. In assay [4], the pest or weed control at 15.625 g/ha was found to be 0%, the pest or weed control at 62.5 g/ha amounted to 70% and the pest or weed control at 250 g/ha worked out at 80%.

(Values after patent US12077503B2, “Substituted cyclic amides and their use as herbicides” (FMC CORPORATION, priority 2015, dated 2024).)
